{"source": "patent US9238611B2", "about": "“Process for separating aryl carboxylic acids” (Reliance Industries Limited, priority 2012, dated 2016)", "origin": "cited, not measured here", "conditions": "per one milligram of the terephthalate salt"}
{"smiles": "COc1ccc2c3c1O[C@H]1C(=O)CC[C@@]4(O)[C@@H](C2)N(C)CC[C@]314.COc1ccc2c3c1O[C@H]1C(=O)CC[C@@]4(O)[C@@H](C2)N(C)CC[C@]314.O=C(O)c1ccc(C(=O)O)cc1", "note": "[terephthalas oxycodonae]", "values": [{"measurement": "amount of hydrochloridum oxycodonae pharmacologically equivalent to one milligram", "value": 1.13, "unit": "mg"}]}
